Assay results published in patent US20220030867A1 (priority 2018, published 2022).

Assays:
[1] = test system: Botryotinia fuckeliana (Botrytis cinerea); experiment: Botryotinia fuckeliana (Botrytis cinerea) / liquid culture (gray mould); format: cell-based; conditions: growth inhibition photometrically 3-4 days after application, vs untreated control
Method: Botryotinia fuckeliana (Botrytis cinerea)/Liquid Culture (Gray Mould)
(§1) Conidia of the fungus from cryogenic storage are directly mixed into nutrient broth (Vogels broth). After placing a (DMSO) solution of test compound into a microtiter plate (96-well format), the nutrient broth containing the fungal spores is added. The test plates are incubated at 24° C. and the inhibition of growth is determined photometrically 3-4 days after application.

[2] = test system: Fusarium culmorum; experiment: whole plant or invertebrate; format: in vivo, Fusarium culmorum on wheat spikelets cv. Monsun; conditions: in Triticum aestivum, read-out: control of Fusarium culmorum
[3] = test system: Mycosphaerella graminicola (Septoria tritici); experiment: Mycosphaerella graminicola (Septoria tritici) / liquid culture (Septoria blotch); format: cell-based; conditions: Zymoseptoria tritici, growth inhibition photometrically 4-5 days after application, vs untreated control
Method: Mycosphaerella graminicola (Septoria tritici)/Liquid Culture (Septoria Blotch)
as §1, with “(PDB potato dextrose” for “(Vogels”, “4-5” for “3-4”

[4] = test system: Fusarium culmorum; experiment: microbe, parasite or virus in culture; format: cell-based; conditions: read-out: control of Fusarium culmorum
[5] = test system: Magnaporthe grisea (Pyricularia oryzae); experiment: microbe, parasite or virus in culture; format: cell-based; conditions: read-out: control of Magnaporthe grisea
[6] = test system: Magnaporthe grisea (Pyricularia oryzae); experiment: whole plant or invertebrate; format: in vivo, Magnaporthe grisea on rice leaf segments cv. Ballila; conditions: foliar, read-out: control of Magnaporthe grisea
[7] = test system: Glomerella lagenarium (Colletotrichum lagenarium); experiment: Glomerella lagenarium (Colletotrichum lagenarium) / liquid culture (anthracnose); format: cell-based; conditions: Colletotrichum orbiculare, growth inhibition photometrically 3-4 days after application, vs untreated control
Method: as §1, with “(PDB potato dextrose” for “(Vogels”, “measured” for “determined”

[8] = test system: Sclerotinia sclerotiorum; experiment: Sclerotinia sclerotiorum / liquid culture (cottony rot); format: cell-based; conditions: growth inhibition photometrically 3-4 days after application, vs untreated control
Method: Sclerotinia sclerotiorum/Liquid Culture (Cottony Rot)
as §1, with “Mycelia fragments of a newly grown liquid culture” for “Conidia”, “fungus” for “fungus from cryogenic storage”, “format)” for “format),”, “material” for “spores”

[9] = test system: Monographella nivalis (Microdochium nivale); experiment: Monographella nivalis (Microdochium nivale) / liquid culture (foot rot cereals); format: cell-based; conditions: growth inhibition photometrically 4-5 days after application, vs untreated control
Method: Monographella nivalis (Microdochium nivale)/Liquid Culture (Foot Rot Cereals)
as §1, with “(PDB potato dextrose” for “(Vogels”, “4-5” for “3-4”

SMILES | inhibition of growth at 200 ppm [1] [%] | pest or weed control at 200 ppm [2] [%] | inhibition of growth at 200 ppm [3] [%] | inhibition of growth at 200 ppm [4] [%] | inhibition of growth at 200 ppm [5] [%] | pest or weed control at 200 ppm [6] [%] | inhibition of growth at 200 ppm [7] [%] | melting point [°C] | inhibition of growth at 20 ppm [8] [%] | inhibition of growth at 200 ppm [9] [%]
C=C(Cl)C[C@@H](Cc1ccccc1)C(=O)Nc1cc2cccc(F)c2nc1C [Compound F-25, (2R)-2-benzyl-4-chloro-N-(8-fluoro-2-methyl-3-quinolyl)pent-4-enamide] | ≥ 80 | ≥ 80 | ≥ 80 | ≥ 80 | ≥ 80 | ≥ 80 | ≥ 80 |  |  | 
Cc1c(NC(=O)C(Cc2ccccc2)CC2(C)CC2)cnc2c(F)cccc12 (stereo not drawn) [Compound E-90, 2-benzyl-N-(8-fluoro-4-methyl-3-quinolyl)-3-(1-methylcyclopropyl)propanamide] | ≥ 80 | ≥ 80 |  | ≥ 80 | ≥ 80 | ≥ 80 | ≥ 80 | 144 to 146 | ≥ 80 | ≥ 80
Cc1nc2c(F)cccc2cc1NC(=O)C(Cc1ccccc1)CC1(C)CC1 (stereo not drawn) [Compound E-89, 2-benzyl-N-(8-fluoro-2-methyl-3-quinolyl)-3-(1-methylcyclopropyl)propanamide] | ≥ 80 | ≥ 80 |  | ≥ 80 | ≥ 80 | ≥ 80 | ≥ 80 | 162 to 163 | ≥ 80 | ≥ 80
C=C(C)CC(Cc1ccccc1)C(=O)Nc1cnc2c(F)cccc2c1C (stereo not drawn) [Compound E-93, 2-benzyl-N-(8-fluoro-4-methyl-3-quinolyl)-4-methyl-pent-4-enamide] |  |  | ≥ 80 |  | ≥ 80 | ≥ 80 |  | 116 to 118 | ≥ 80 | 
C=C(C)CC(Cc1ccccc1)C(=O)Nc1cc2cccc(F)c2nc1C (stereo not drawn) [Compound E-92, 2-benzyl-N-(8-fluoro-2-methyl-3-quinolyl)-4-methyl-pent-4-enamide] |  | ≥ 80 | ≥ 80 |  | ≥ 80 |  |  | 97 to 99 |  | 
CC(C)CC(F)(Cc1ccccc1)C(=O)Nc1cnc2c(F)cccc2c1 (stereo not drawn) [Compound E-1] |  | ≥ 80 | ≥ 80 |  | ≥ 80 | ≥ 80 |  |  |  | 
Cc1c(NC(=O)C(Cc2ccccc2)CC(C)(C)C)cnc2c(F)cccc12 (stereo not drawn) [Compound E-96, 2-benzyl-N-(8-fluoro-4-methyl-3-quinolyl)-4,4-dimethyl-pentanamide] | ≥ 80 | ≥ 80 |  | ≥ 80 | ≥ 80 | ≥ 80 | ≥ 80 | 135 to 136 | ≥ 80 | ≥ 80
C=C(Cl)C[C@@H](Cc1ccccc1)C(=O)Nc1cnc2c(F)cccc2c1C [Compound F-27, (2R)-2-benzyl-4-chloro-N-(8-fluoro-4-methyl-3-quinolyl)pent-4-enamide] | ≥ 80 |  | ≥ 80 |  | ≥ 80 |  | ≥ 80 |  |  | ≥ 80
Cc1c(NC(=O)[C@@H](Cc2ccccc2)CC2(C)CC2)cnc2c(F)cccc12 [Compound F-40, (2R)-2-benzyl-N-(8-fluoro-4-methyl-3-quinolyl)-3-(1-methylcyclopropyl)propanamide] | ≥ 80 | ≥ 80 | ≥ 80 | ≥ 80 | ≥ 80 |  | ≥ 80 |  | ≥ 80 | ≥ 80
C=C(Cl)CC(Cc1ccccc1)C(=O)Nc1cc2cccc(F)c2nc1C (stereo not drawn) [Compound E-4, 2-benzyl-4-chloro-N-(8-fluoro-2-methyl-3-quinolyl)pent-4-enamide] |  |  | ≥ 80 |  | ≥ 80 |  |  | 96 to 99 |  | 
